Test results reported in patent US11840686B2, “Modulation of prekallikrein (PKK) expression” (Ionis Pharmaceuticals, Inc., priority 2013, dated 2023).
Strand notation (5' to 3'): a small letter for the sugar, then the base; units joined by * are phosphorothioate-linked, units joined directly phosphodiester-linked; [ ] holds rarer units or linkages, { } end groups; capitals alone tell only the bases. e = 2'-O-(2-methoxyethyl) (MOE); k = constrained ethyl (cEt); [5mC] = 5-methylcytosine; d = 2'-deoxy (DNA)

System: human PKK mRNA
Experiment: Antisense inhibition of human PKK mRNA in HepaRG cells, 1,000 nM, MOE/deoxy/cEt oligonucleotides (Example 3)
Assay type: cell-based
Conditions: HepaRG cells, 1,000 nM antisense oligonucleotide, Table 29
Method: Additional antisense oligonucleotides were designed targeting a PKK nucleic acid and were tested for their effects on PKK mRNA in vitro.
The chimeric antisense oligonucleotides in the tables below were designed as deoxy, MOE and cEt gapmers. The gapmers are 16 nucleosides in length wherein the nucleoside have either a MOE sugar modification, a cEt sugar modification, or a deoxy modification. The ‘Chemistry’ column describes the sugar modifications of each oligonucleotide. ‘k’ indicates an cEt sugar modification; the number indicates the number of deoxynucleosides; otherwise, indicates a deoxynucleoside; and ‘e’ indicates a 2′-O-methoxyethyl modification. The internucleoside linkages throughout each gapmer are phosphorothioate linkages. All cytosine residues throughout each oligonucleotide are 5-methylcytosines. “Start site” indicates the 5′-most nucleoside to which the gapmer is targeted in the human gene sequence. “Stop site” indicates the 3′-most nucleoside to which the gapmer is targeted in the human gene sequence.
Cultured HepaRG™ cells at a density of 20,000 cells per well were transfected using electroporation with 1,000 nM antisense oligonucleotide. After a treatment period of approximately 24 hours, RNA was isolated from the cells and PKK mRNA levels were measured by quantitative real-time PCR. Human primer probe set RTS3454 was used to measure mRNA levels. ISIS 531231 was also included in this assay. PKK mRNA levels were adjusted according to total RNA content, as measured by RIBOGREEN®. The antisense oligonucleotides were tested in a series of experiments that had similar culture conditions. Results are presented as percent inhibition of PKK, relative to untreated control cells.

Row | Substance | % inhibition [%]
1 | 548604 (eG*eT*kG*dG*dT*dG*dG*dG*dA*dT*dT*dG*dG*kT*kG*e[5mC]; antisense) [compound 548604] | 22
2 | 548574 (eG*eG*kT*d[5mC]*dT*dA*dA*d[5mC]*dT*d[5mC]*dT*dA*dA*kG*kG*eG; antisense) [compound 548574] | 0
3 | 548560 (antisense e[5mC]*eA*k[5mC]*dT*dG*d[5mC]*d[5mC]*dT*dA*dG*dA*dA*dA*kG*kG*e[5mC]) [compound 548560] | 16
4 | 548576 (eT*e[5mC]*kA*dT*dG*dT*dG*dG*d[5mC]*dA*dA*d[5mC]*d[5mC]*kT*kG*eT; antisense) [compound 548576] | 41

Same assay, conditions: HepaRG cells, electroporation with 1,000 nM antisense oligonucleotide, approx. 24 hours, PKK mRNA by RT-PCR (RTS3454), relative to untreated control cells; Table 25 experiment

Row | Substance | % inhibition [%]
5 | 548226 (eT*eA*kA*dG*dT*d[5mC]*dA*d[5mC]*d[5mC]*dA*dT*dA*dG*kA*k[5mC]*e[5mC]; antisense) [compound 548226] | 39
6 | 548175 (eA*eT*k[5mC]*dT*d[5mC]*dA*dG*dT*dT*dG*d[5mC]*dG*dA*k[5mC]*k[5mC]*eT; antisense) [compound 548175] | 0
7 | 548171 (e[5mC]*eA*kG*dT*dT*dG*d[5mC]*dG*dA*d[5mC]*d[5mC]*dT*d[5mC]*kG*k[5mC]*eA; antisense) [compound 548171] | 47
8 | 548166 (eG*e[5mC]*kG*dA*d[5mC]*d[5mC]*dT*d[5mC]*dG*d[5mC]*dA*dT*dT*kG*kT*e[5mC]; antisense) [compound 548166] | 0

Same assay, conditions: HepaRG cells, electroporation with 1,000 nM antisense oligonucleotide, approx. 24 hours, PKK mRNA by RT-PCR (RTS3454), relative to untreated control cells; Table 26 experiment

Row | Substance | % inhibition [%]
9 | 548280 (antisense e[5mC]*eT*k[5mC]*d[5mC]*d[5mC]*dT*d[5mC]*dT*dG*dT*dA*dA*dT*kG*kA*eT) [compound 548280] | 43
10 | 548260 (antisense eA*eG*kG*dA*dG*dT*dT*dT*dG*dT*d[5mC]*dA*dG*kA*kA*e[5mC]) [compound 548260] | 28
11 | 548292 (eA*eG*kG*dA*d[5mC]*dA*d[5mC]*dT*dG*dT*dT*dT*d[5mC]*k[5mC]*kA*eG; antisense) [compound 548292] | 38

Same assay, conditions: HepaRG cells, electroporation with 1,000 nM antisense oligonucleotide, approximately 24 hours, primer probe set RTS3454, relative to untreated control cells; experiment of Table 23

Row | Substance | % inhibition [%]
12 | 547959 (eG*e[5mC]*kA*dG*dG*dT*dT*dA*dA*dA*dA*dG*dG*k[5mC]*kT*eA; antisense) [compound 547959] | 60
13 | 547984 (antisense e[5mC]*eG*kA*dA*dT*d[5mC]*dA*dT*d[5mC]*dT*dT*dT*dG*kT*kG*e[5mC]) [compound 547984] | 55
14 | 547938 (eT*eT*kG*dT*dG*dA*d[5mC]*dT*d[5mC]*dG*dA*dT*dT*kT*kT*e[5mC]; antisense) [compound 547938] | 56
15 | 547925 (eG*eG*kT*d[5mC]*d[5mC]*dG*dA*d[5mC]*dA*d[5mC]*dA*d[5mC]*dA*kA*kA*eA; antisense) [compound 547925] | 16
16 | 547953 (e[5mC]*eT*kA*dT*dA*dT*d[5mC]*d[5mC]*dA*dG*dA*dT*dA*kT*kG*eG; antisense) [compound 547953] | 16
17 | 547973 (antisense eA*eA*kG*dT*d[5mC]*dA*dA*d[5mC]*dT*d[5mC]*d[5mC]*d[5mC]*dG*kG*kG*eT) [compound 547973] | 62
18 | 547974 (antisense eA*eA*kA*dG*dT*d[5mC]*dA*dA*d[5mC]*dT*d[5mC]*d[5mC]*d[5mC]*kG*kG*eG) [compound 547974] | 52
19 | 547996 (antisense eT*eG*kT*dG*dT*d[5mC]*d[5mC]*d[5mC]*dA*dT*dA*d[5mC]*dG*k[5mC]*kA*eA) [compound 547996] | 65
20 | 547956 (eG*eT*kT*dA*dA*dA*dA*dG*dG*d[5mC]*dT*dA*dT*kA*kT*e[5mC]; antisense) [compound 547956] | 13

Same assay, conditions: HepaRG cells, electroporation with 1,000 nM antisense oligonucleotide, approximately 24 hours, primer probe set RTS3454, relative to untreated control cells; experiment of Table 24

Row | Substance | % inhibition [%]
21 | 548068 (e[5mC]*eA*kA*d[5mC]*dA*dG*dT*dT*dG*dG*dT*dA*dT*kA*kA*eA; antisense) [compound 548068] | 0
22 | 548029 (eT*eG*kG*dT*dG*dT*d[5mC]*d[5mC]*dT*dA*dT*dG*dA*kG*kT*eG; antisense) [compound 548029] | 12

Same assay, conditions: PKK mRNA, HepaRG cells, 1,000 nM antisense oligonucleotide; Table 31

Row | Substance | % inhibition [%]
23 | 548673 (antisense eG*eA*k[5mC]*d[5mC]*dT*dT*dG*d[5mC]*dT*dT*d[5mC]*d[5mC]*dA*kT*kG*eT) [compound 548673] | 40
24 | 548621 (antisense eG*eA*kA*d[5mC]*dA*d[5mC]*dA*dT*d[5mC]*dA*dG*dG*dG*kA*kT*eT) [compound 548621] | 33
25 | 548669 (antisense eA*eA*kT*dG*d[5mC]*dA*dG*dG*d[5mC]*d[5mC]*dA*dG*d[5mC]*kA*kT*e[5mC]) [compound 548669] | 42
26 | 548615 (antisense eT*eT*kG*dG*dT*dG*dG*d[5mC]*dG*dG*dG*dA*dT*k[5mC]*kG*eG) [compound 548615] | 10

Same assay, conditions: Table 19; HepaRG cells, electroporation with 1,000 nM antisense oligonucleotide, approximately 24 hours; PKK mRNA by RT-PCR (RTS3454), relative to untreated control cells

Row | Substance | % inhibition [%]
27 | 548084 (eA*eA*kG*dG*dG*dA*d[5mC]*d[5mC]*dA*d[5mC]*d[5mC]*dT*dG*kA*kA*eT; antisense) [compound 548084] | 0
28 | 548148 (eG*e[5mC]*kA*dG*d[5mC]*dT*d[5mC]*dT*dG*dA*dG*dT*dG*k[5mC]*kA*e[5mC]; antisense) [compound 548148] | 66
29 | 548104 (antisense eA*eT*kG*dT*dA*d[5mC]*dT*d[5mC]*dA*dG*d[5mC]*dG*dA*k[5mC]*kT*eT) [compound 548104] | 59
30 | 548095 (antisense eT*eG*kT*dT*dT*dG*d[5mC]*dA*dA*dA*d[5mC]*dT*dA*kA*kG*eG) [compound 548095] | 35
31 | 548129 (eT*eT*kT*dG*dA*d[5mC]*dT*dT*dG*dA*dA*d[5mC]*dT*k[5mC]*kA*eG; antisense) [compound 548129] | 35

Same assay, conditions: Table 20; HepaRG cells, electroporation with 1,000 nM antisense oligonucleotide, approximately 24 hours; PKK mRNA by RT-PCR (RTS3454), relative to untreated control cells

Row | Substance | % inhibition [%]
32 | 547907 (eA*eT*kT*dT*d[5mC]*dT*dG*dA*dA*dA*dG*dG*dG*k[5mC]*kA*e[5mC]; antisense) [compound 547907] | 27
33 | 547919 (eG*eA*kA*d[5mC]*d[5mC]*d[5mC]*dT*dG*dG*d[5mC]*dA*dA*d[5mC]*kA*kT*e[5mC]; antisense) [compound 547919] | 41

Same assay, conditions: Table 21 experiment; HepaRG cells, electroporation with 1,000 nM antisense oligonucleotide, approx. 24 hours; PKK mRNA by RT-PCR (RTS3454), relative to untreated control cells

Row | Substance | % inhibition [%]
34 | 547788 (antisense eT*eA*kA*dG*dT*dT*dG*d[5mC]*dT*dT*dG*d[5mC]*dT*kT*kG*eA) [compound 547788] | 49
35 | 547839 (eG*e[5mC]*kT*dT*d[5mC]*dA*dA*dG*dG*dA*dA*dT*dG*kT*k[5mC]*e[5mC]; antisense) [compound 547839] | 35
36 | 547840 (antisense eT*eT*kG*d[5mC]*dT*dT*d[5mC]*dA*dA*dG*dG*dA*dA*kT*kG*eT) [compound 547840] | 36

Same assay, conditions: Table 22 experiment; HepaRG cells, electroporation with 1,000 nM antisense oligonucleotide, approx. 24 hours; PKK mRNA by RT-PCR (RTS3454), relative to untreated control cells

Row | Substance | % inhibition [%]
37 | 547907 (eA*eT*kT*dT*d[5mC]*dT*dG*dA*dA*dA*dG*dG*dG*k[5mC]*kA*e[5mC]; antisense) [compound 547907] | 27
38 | 547919 (eG*eA*kA*d[5mC]*d[5mC]*d[5mC]*dT*dG*dG*d[5mC]*dA*dA*d[5mC]*kA*kT*e[5mC]; antisense) [compound 547919] | 73

Same assay, conditions: Table 27; HepaRG cells, 1,000 nM antisense oligonucleotide; human PKK mRNA

Row | Substance | % inhibition [%]
39 | 548333 (antisense eG*eA*k[5mC]*dT*dG*dT*dG*d[5mC]*dT*dA*dT*d[5mC]*d[5mC]*kG*k[5mC]*eT) [compound 548333] | 58
40 | 548325 (e[5mC]*e[5mC]*k[5mC]*dA*d[5mC]*dT*dG*dA*d[5mC]*dT*dG*dA*d[5mC]*kT*kA*e[5mC]; antisense) [compound 548325] | 27
41 | 548335 (antisense eT*eA*kG*d[5mC]*dA*dT*d[5mC]*dA*dT*dG*d[5mC]*d[5mC]*dA*k[5mC]*kA*eG) [compound 548335] | 51
42 | 548357 (antisense eG*eA*k[5mC]*dG*dA*d[5mC]*dT*dG*d[5mC]*d[5mC]*d[5mC]*dT*dG*kT*kG*e[5mC]) [compound 548357] | 69
43 | 548345 (antisense e[5mC]*eT*kA*dA*d[5mC]*dT*d[5mC]*d[5mC]*dA*dT*d[5mC]*dA*d[5mC]*kT*kG*e[5mC]) [compound 548345] | 55
44 | 548367 (antisense eG*eT*kT*d[5mC]*dT*dT*dG*dA*dG*dT*dG*dT*dA*kG*kA*eG) [compound 548367] | 52

Same assay, conditions: Table 28; HepaRG cells, 1,000 nM antisense oligonucleotide; human PKK mRNA

Row | Substance | % inhibition [%]
45 | 548523 (antisense eG*eG*kT*dA*dA*dA*dT*d[5mC]*d[5mC]*dA*dT*d[5mC]*d[5mC]*k[5mC]*k[5mC]*eT) [compound 548523] | 44
46 | 548459 (e[5mC]*eA*kA*d[5mC]*dT*dA*dT*dA*dA*d[5mC]*dA*dG*dT*kA*kT*e[5mC]; antisense) [compound 548459] | 26
